This note sets out measurements from BindingDB's records for doi:10.7270/Q2W37TVH (Novartis Pharma, 1997).

Dihydroorotate dehydrogenase (quinone), mitochondrial, sequence (Q02127 whole entry): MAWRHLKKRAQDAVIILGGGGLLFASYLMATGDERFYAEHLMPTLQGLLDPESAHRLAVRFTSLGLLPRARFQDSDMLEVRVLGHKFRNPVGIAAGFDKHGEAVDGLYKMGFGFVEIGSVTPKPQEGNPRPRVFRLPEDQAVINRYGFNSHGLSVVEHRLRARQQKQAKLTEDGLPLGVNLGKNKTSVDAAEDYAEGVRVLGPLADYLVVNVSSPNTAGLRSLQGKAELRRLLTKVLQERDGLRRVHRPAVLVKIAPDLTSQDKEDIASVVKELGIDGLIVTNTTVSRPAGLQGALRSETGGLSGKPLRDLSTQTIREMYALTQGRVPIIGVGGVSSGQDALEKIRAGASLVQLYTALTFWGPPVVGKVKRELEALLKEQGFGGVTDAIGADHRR

The assay addresses Dihydroorotate dehydrogenase (quinone), mitochondrial (Homo sapiens, UniProt Q02127). As to the kind of experiment: Spectrophotometric Assay. The source says: Spectrophotometric assay using crude human, recombinant DHODHase.
`CC(C)(C)CCC(=O)C(C#N)C(=O)Nc1ccc(C(F)(F)F)cc1` (stereo not drawn) [Alpha-cyano-beta-hydroxy enamide, 5]: the IC50 came to 0.13 µM. This counts as sub-micromolar.
To `CC(C)(C)C(=O)C(C#N)C(=O)Nc1ccc(C(F)(F)F)cc1` (stereo not drawn) [Alpha-cyano-beta-hydroxy enamide, 4] belongs 16.2 µM; to `CC(=O)C(C#N)C(=O)Nc1ccccc1` (stereo not drawn) [Alpha-cyano-beta-hydroxy enamide, 2], 15.2 µM; to `N#Cc1ccc(NC(=O)C(C#N)C(=O)C2CC2)cc1` (stereo not drawn) [Alpha-cyano-beta-hydroxy enamide, 6], 0.6 µM.
The same measure for `N#C/C(C(=O)Nc1ccc(C(F)(F)F)cc1)=C1\CCCO1` [Tetrahydrofuranyl derivative, 7 (Z)]: > 50 µM.
Turning to `N#C/C(C(=O)Nc1ccc(C(F)(F)F)cc1)=C1/CCOC1` [Tetrahydrofuranyl derivative, 7 (E)], the IC50 was > 50 µM.
`N#C/C(C(=O)Nc1ccc(C(F)(F)F)cc1)=C1\CCCCO1` [Tetrahydropyranyl derivative, 8 (Z)]: the IC50 was > 50 µM.
Compound `CC(=O)C(C#N)C(=O)Nc1ccc(C#N)cc1` (stereo not drawn) [Alpha-cyano-beta-hydroxy enamide, 3] gave a half-inhibitory concentration (IC50) of 1.3 µM. This lies in the single-digit micromolar range.
To `N#C/C(C(=O)Nc1ccc(C(F)(F)F)cc1)=C1/CCCCO1` [Tetrahydropyranyl derivative, 8 (E)] belongs > 50 µM.
